US8183243B2, “Melanocortin receptor agonists” (LG Life Sciences Ltd., priority 2008, dated 2012)

Target: T1, MC4R (Homo sapiens, UniProt P32245)
T1 construct: expressed in transfected cells; host or cells: HEK (Human Embryonic Kidney) permanent expression cell line HEK MC4R-Luc, co-expressing CRE-luciferase
Experiment: MCR agonistic activity (luciferase assay / cAMP accumulation assay) on MC4R
Assay type: cell-based
Settings: HEK cell lines expressing MC4R; method A (CRE-luciferase) or B (cAMP accumulation), not said which; read-out: EC50 value, agonistic activity to MC4R (range per group of Examples)
How it was run: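 HEK cells stably expressing MC4R with a CRE-luciferase reporter treated 5 hours at 37 °C with serially diluted agonist (≤1% DMSO); luminescence expressed relative to 10 nM NDP-MSH, EC50 at half-maximal signal. Alternatively, cAMP measured after 30 minutes with compound plus 500 μM IBMX by [3H]-cAMP competition binding.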

T1 sequence (P32245 whole entry, species assumed): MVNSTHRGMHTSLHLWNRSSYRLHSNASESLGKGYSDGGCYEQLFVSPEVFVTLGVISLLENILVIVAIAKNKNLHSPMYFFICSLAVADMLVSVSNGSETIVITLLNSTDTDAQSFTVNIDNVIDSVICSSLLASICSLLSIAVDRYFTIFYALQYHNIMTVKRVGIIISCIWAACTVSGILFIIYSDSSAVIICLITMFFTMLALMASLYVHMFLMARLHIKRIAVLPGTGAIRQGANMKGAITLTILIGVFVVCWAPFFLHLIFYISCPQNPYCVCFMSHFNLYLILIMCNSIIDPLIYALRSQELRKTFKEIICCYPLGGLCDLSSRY

SMILES	EC50
CC(C)N1CCN(C(=O)[C@@H]2C[C@H](N(C(=O)[C@@H]3CCCO3)C3CCC(C)(C)CC3)CN2C(=O)[C@@H]2CN(C3CCSCC3)C[C@H]2c2ccc(F)cc2F)CC1 [Example 48, (2S)-N-{(3S,5S)-1-{[(3S,4R)-4-(2,4-difluorophenyl)-1-(tetrahydro-2H-thiopyran-4-yl)pyrrolidin-3-yl]carbonyl}-5-[(4-isopropylpiperazin-1-yl)carbonyl]pyrrolidin-3-yl}-N-(4,4-dimethylcyclohexyl)tetrahydrofuran-2-carboxamide]	10 to 100 nM
CCN1CCN(C(=O)[C@@H]2C[C@H](N(C(C)=O)C3CCC(F)(F)CC3)CN2C(=O)[C@@H]2CN(C(C)(C)C)C[C@H]2c2ccc(Cl)cc2)CC1 [Example 28, N-{(3S,5S)-1-{[(3S,4R)-1-tert-butyl-4-(4-chlorophenyl)pyrrolidin-3-yl]carbonyl}5-[(4-ethylpiperazin-1-yl)carbonyl]pyrrolidin-3-yl}-N-(4,4-difluorocyclohexyl)acetamide]	100 to 1000 nM
CN1CCN(C(=O)[C@@H]2C[C@H](N(C(=O)C(C)(C)CO)[C@H]3CC[C@@H](C)CC3)CN2C(=O)[C@@H]2CN(C3CC3)C[C@H]2c2ccc(Cl)cc2)CC1 [Example 59, N-{(3S,5S)-1-{[(3S,4R)-4-(4-chlorophenyl)-1-cyclopropylpyrrolidin-3-yl]carbonyl}-5-[(4-methylpiperazin-1-yl)carbonyl]pyrrolidin-3-yl}-N-(cis-4-methylcyclohexyl)-3-hydroxy-2,2-dimethylpropanamide]	0.1 to 10 nM
CN1CCN(C(=O)[C@H]2C[C@H](N(C(=O)[C@@H]3CCCO3)C3CCC(C)(C)CC3)CN2C(=O)[C@@H]2CN(C3CC3)C[C@H]2c2ccc(Cl)cc2)CC1 [Example 55, (2S)-N-{(3S,5R)-1-{[(3S,4R)-4-(4-chlorophenyl)-1-cyclopropylpyrrolidin-3yl]carbonyl}-5-[(4-methylpiperazin-1-yl)carbonyl]pyrrolidin-3-yl}-N-(4,4-dimethylcyclohexyl)tetrahydrofuran-2-carboxamide]	10 to 100 nM
CN1CCN(C(=O)[C@@H]2C[C@H](N(C(=O)C(C)(C)C)C3CCC(C)(C)CC3)CN2C(=O)[C@@H]2CN(C(C)(C)C)C[C@H]2c2ccc(Cl)cc2)CC1 [Example 10, N-{(3S,5S)-1-{[(3S,4R)-1-tert-butyl-4-(4-chlorophenyl)pyrrolidin-3-yl]carbonyl}-5-[(4-methylpiperazin-1-yl)carbonyl]pyrrolidin-3-yl}-N-(4,4-dimethylcyclohexyl)-2,2-dimethylpropanamide]	0.1 to 10 nM
CN1CCN(C(=O)[C@@H]2C[C@H](N(C(=O)[C@@H]3CCCO3)C3CCC(C)(C)CC3)CN2C(=O)[C@@H]2CN(C3CC3)C[C@H]2c2ccc(Cl)cc2)CC1 [Example 42, (2S)-N-{(3S,5S)-1-{[(3S,4R)-4-(4-chlorophenyl)-1-cyclopropylpyrrolidin-3-yl]carbonyl}-5-[(4-methylpiperazin-1-yl)carbonyl]pyrrolidin-3-yl}-N-(4,4-dimethylcyclohexyl)tetrahydrofuran-2-carboxamide]	10 to 100 nM
CN1CCN(C(=O)[C@H]2C[C@H](N(C(=O)[C@@H]3CCCO3)[C@H]3CC[C@@H](C)CC3)CN2C(=O)[C@@H]2CN(C(C)(C)C)C[C@H]2c2ccc(Cl)cc2)CC1 (relative stereo) [Example 35, (2S)-N-{(3S,5R)-1-{[(3S,4R)-1-tert-butyl-4-(4-chlorophenyl)pyrrolidin-3-yl]carbonyl}-5-[(4-methylpiperazin-1-yl)carbonyl]pyrrolidin-3-yl}-N-(cis-4-methylcyclohexyl)tetrahydrofuran-2-carboxamide]	0.1 to 10 nM
CC(=O)N(C1CCC(F)(F)CC1)[C@H]1C[C@@H](C(=O)N2CCN(C(C)C)CC2)N(C(=O)[C@@H]2CN(C(C)(C)C)C[C@H]2c2ccc(Cl)cc2)C1 [Example 29, N-{(3S,5S)-1-{[(3S,4R)-1-tert-butyl-4-(4-chlorophenyl)pyrrolidin-3-yl]carbonyl}5-[(4-isopropylpiperazin-1-yl)carbonyl]pyrrolidin-3-yl}-N-(4,4-difluorocyclohexyl)acetamide]	100 to 1000 nM
CN1CCN(C(=O)[C@@H]2C[C@H](N(C(=O)C(C)(C)C)C3CCC(C)(C)CC3)CN2C(=O)[C@@H]2CN(c3ncccn3)C[C@H]2c2ccc(Cl)cc2)CC1 [Example 67, N-{(3S,5S)-1-{[(3S,4R)-4-(4-chlorophenyl)-1-pyrimidine-2-ylpyrrolidin-3-yl]carbonyl}-5-[(4-methylpiperazin-1-yl)carbonyl]pyrrolidin-3-yl}-N-(4,4-dimethylcyclohexyl)-2,2-dimethylpropanamide]	1000 to 10000 nM

Continued, values first:

EC50	SMILES
10 to 100 nM	CN1CCN(C(=O)[C@@H]2C[C@H](N(C(=O)[C@@H]3CCCO3)[C@H]3CC[C@@H](C)CC3)CN2C(=O)[C@H]2CN(C(C)(C)C)C[C@H]2c2ccc(Cl)cc2)CC1 [Example 74, (2S)-N-{(3S,5S)-1-{[(3R,4R)-1-tert-butyl-4-(4-chlorophenyl)pyrrolidin-3-yl]carbonyl}-5-[(4-methylpiperazin-1-yl)carbonyl]pyrrolidin-3-yl}-N-(cis-4-methylcyclohexyl)tetrahydrofuran-2-carboxamide]
100 to 1000 nM	CN1CCN(C(=O)[C@@H]2C[C@@H](N(C(=O)[C@@H]3CCCO3)[C@H]3CC[C@@H](C)CC3)CN2C(=O)[C@@H]2CN(C(C)(C)C)C[C@H]2c2ccc(Cl)cc2)CC1 [Example 76, (2S)-N-{(3R,5S)-1-{[(3S,4R)-1-tert-butyl-4-(4-chlorophenyl)pyrrolidin-3-yl]carbonyl}-5-[(4-methylpiperazin-1-yl)carbonyl]pyrrolidin-3-yl}-N-(cis-4-methylcyclohexyl)tetrahydrofuran-2-carboxamide]
10 to 100 nM	CN1CCN(C(=O)[C@H]2C[C@H](N(C(=O)[C@@H]3CCCO3)[C@H]3CC[C@@H](C)CC3)CN2C(=O)[C@@H]2CN(C3CC3)C[C@H]2c2ccc(Cl)cc2)CC1 [Example 57, (2S)-N-{(3S,5R)-1-{[(3S,4R)-4-(4-chlorophenyl)-1-cyclopropylpyrrolidin-3-yl]carbonyl}-5-[(4-methylpiperazin-1-yl)carbonyl]pyrrolidin-3-yl}-N-(cis-4-methylcyclohexyl)tetrahydrofuran-2-carboxamide]
10 to 100 nM	CN1CCN(C(=O)[C@@H]2C[C@H](N(C(=O)[C@@H]3CCCO3)[C@H]3CC[C@@H](C)CC3)CN2C(=O)[C@@H]2CN(c3ccccc3)C[C@H]2c2ccc(Cl)cc2)CC1 [Example 46, (2S)-N-{(3S,5S)-1-{[(3S,4R)-4-(4-chlorophenyl)-1-phenylpyrrolidin-3-yl]carbonyl}-5-[(4-methylpiperazin-1-yl)carbonyl]pyrrolidin-3-yl}-N-(cis-4-methylcyclohexyl)tetrahydrofuran-2-carboxamide]
0.1 to 10 nM	CN1CCN(C(=O)[C@@H]2C[C@H](N(C(=O)[C@@H]3CCCO3)[C@H]3CC[C@@H](C)CC3)CN2C(=O)[C@@H]2CN(c3ccc(=O)[nH]n3)C[C@H]2c2ccc(Cl)cc2)CC1 [Example 73, (2S)-N-{(3S,5S)-1-{[(3S,4R)-4-(4-chlorophenyl)-1-(6-oxo-1,6-dihydropyridazine-3-yl)pyrrolidin-3-yl]carbonyl]-5-[(4-methylpiperazin-1-yl)carbonyl]pyrrolidin-3-yl}-N-(cis-4-methylcyclohexyl)tetrahydrofuran-2-carboxamide]
0.1 to 10 nM	CCN1CCN(C(=O)[C@@H]2C[C@H](N(C(=O)[C@@H]3CCCO3)C3CCC(C)(C)CC3)CN2C(=O)[C@@H]2CN(C(C)(C)C)C[C@H]2c2ccc(Cl)cc2)CC1 [Example 12, (2S)-N-{(3S,5S)-1-{[(3S,4R)-1-tert-butyl-4-(4-chlorophenyl)pyrrolidin-3-yl]carbonyl}-5-[(4-ethylpiperazin-1-yl)carbonyl]pyrrolidin-3-yl}-N-(4,4-dimethylcyclohexyl)tetrahydrofuran-2-carboxamide]
